Laboratory results taken from patent publication US5498632A, “Esters of acyl carnitines with long-chain aliphatic alcohols and pharmaceutical compositions containing same having antibacterial activity” (Sigma-Tau Industrie Farmaceutiche Riunite S.p.A., priority 1992, dated 1996).

How the values were obtained:
Assay type in all cases: cell-based
[1] = test system: Campylobacter fetus ATCC 27374; assay: MIC in agar (agar dilution)
Experimental: (§1) In this experiment the activity of ST 722 and ST 712 against Campylobacter and Helicobacter was investigated.
(§2) Campylobacter fetus ATCC 27374, Campylobacter coli LI 048, Campylobacter jejuni 84-ISS, and Helicobacter pylori NCTC 11637.
(§3) The culture medium was Columbia agar base supplemented with 7% (V/V) defribinated horse blood (DHB) for Campylobacter strains, and the same medium additioned with Vitox (Oxoid) for Helicobacter strain.
(§4) The Campylobacter and Helicobacter strains, preserved at -80° C. in DHB containing 10% (V/V) glycerol, were thawed and grown, in their respective culture medium, in culture flasks, which were incubated for 48 hours at 37° C. in a 10% CO2 atmosphere. After this first growth cycle, the bacteria were allowed to go through a second growth cycle in the same conditions as above.
(§5) The bacterial "patina" was then harvested by resuspension in 4-5 ml of Mueller-Hinton broth, the turbidity of which was then assessed according to Mc Farland's criteria (BRAY W. E., Clinical Laboratory Methods, 5th Ed. C. V. MOSBY, St. Louis, Mo. 1957).
(§6) The Helicobacter suspension was adjusted to an approximate concentration of 1.0×10^9 and 1.0×10^8 organisms/ml, while the Campylobacter suspension was adjusted to 1.0×10^7 and 1.0×10^6 organisms/ml.
(§7) With a Steers-type multipoint inoculator (STEERS E., FOLTZ E. L., GRAVES S., RIDEN J., 1959. Inocula-replicating apparatus for routine testing of antibacterial susceptibility to antibiotics. Antibiot. Chemoter. 9: 307-311) 1-μl volumes of the above standardized suspensions were spot-transferred into the wells of a 96-well microtiter plate, which had previously been filled with 0.2 ml/well of Mueller-Hinton agar 5% DHB, containing the test substances at different concentrations.
(§8) The plates was then incubated for 48/72 hours at 37° C. in a 10% CO2 atmosphere.

[2] = test system: Campylobacter jejuni 84-ISS; assay: MIC in agar (agar dilution)
Experimental: as §1, §2, §3, §4, §5, §6, §7, §8

[3] = test system: Campylobacter coli LI 048; assay: MIC in agar (agar dilution)
Experimental: as §1, §2, §3, §4, §5, §6, §7, §8

[4] = test system: Salmonella typhimurium (D.S.); assay: MIC in broth, Gram- strains; details: Salmonella enterica, 18 h, read-out: Minimal Inhibitory Concentration (MIC)
How it was run: (§9)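 Minimal inhibitory concentrations come from a standard microdilution test in Mueller-Hinton broth. Cells are seeded at 5.0×10^4 CFU/ml final and exposed for 18 h at 37 °C.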

Proteus mirabilis (32) = assay: MIC in broth, Gram- strains; details: 18 h, read-out: Minimal Inhibitory Concentration (MIC)
How it was run: as §9

Proteus vulgaris (UM) = assay: MIC in broth, Gram- strains; details: 18 h, read-out: Minimal Inhibitory Concentration (MIC)
How it was run: as §9

[5] = test system: Pseudomonas aeruginosa (10 E); assay: MIC in broth, Gram- strains; details: 18 h, read-out: Minimal Inhibitory Concentration (MIC)
How it was run: as §9

Proteus morganii (D.S.) = assay: MIC in broth, Gram- strains; details: Morganella morganii, 18 h, read-out: Minimal Inhibitory Concentration (MIC)
How it was run: as §9

Escherichia coli (76 F) = assay: MIC in broth, Gram- strains; details: 18 h, E. coli (76 F), read-out: Minimal Inhibitory Concentration (MIC)
How it was run: as §9

[6] = test system: Klebsiella pneumoniae (7823); assay: MIC in broth, Gram- strains; details: 18 h, read-out: Minimal Inhibitory Concentration (MIC)
How it was run: as §9

[7] = test system: Enterobacter aerogenes (UM); assay: MIC in broth, Gram- strains; details: Klebsiella aerogenes, 18 h, read-out: Minimal Inhibitory Concentration (MIC)
How it was run: as §9

[8] = test system: Pseudomonas aeruginosa (3 E); assay: MIC in broth, Gram- strains; details: 18 h, read-out: Minimal Inhibitory Concentration (MIC)
How it was run: as §9

Escherichia coli (R 57B) = assay: MIC in broth, Gram- strains; details: 18 h, E. coli (R 57B), read-out: Minimal Inhibitory Concentration (MIC)
How it was run: as §9

Salmonella typhi (J) = assay: MIC in broth, Gram- strains; details: Salmonella enterica, 18 h, read-out: Minimal Inhibitory Concentration (MIC)
How it was run: as §9

[9] = test system: Klebsiella aerogenes (SH 1082); assay: MIC in broth, Gram- strains; details: 18 h, read-out: Minimal Inhibitory Concentration (MIC)
How it was run: as §9

Escherichia coli (92 F) = assay: MIC in broth, Gram- strains; details: 18 h, E. coli (92 F), read-out: Minimal Inhibitory Concentration (MIC)
How it was run: as §9

Klebsiella oxytoca (552) = assay: MIC in broth, Gram- strains; details: 18 h, read-out: Minimal Inhibitory Concentration (MIC)
How it was run: as §9

[10] = test system: Serratia marcescens (A/1); assay: MIC in broth, Gram- strains; details: 18 h, read-out: Minimal Inhibitory Concentration (MIC)
How it was run: as §9

[11] = test system: Staphylococcus aureus (303); assay: MIC in broth, Gram+ strains; details: S. aureus (303), Mueller-Hinton broth, 37° C., 18 hours, read-out: Minimal Inhibitory Concentration (MIC)
Experimental: (§10) Evaluation of the Minimal Inhibitory Concentration (MIC) in broth of 15 new substances for Gram+ bacterial strains.
(§11) The following strains were used: Staphylococcus aureus (4); Streptococcus faecalis (8); Bacillus pumilus (1); Bacillus subtilis (1).
(§12) MICs were determined by a standard microdilution test, using serial two-fold dilutions of the substances in Mueller-Hinton broth.
(§13) The inoculum was prepared from an overnight culture in Mueller-Hinton broth matching the 0.5 Mc Farland (turbidity) standard (BRAY W. E., Clinical Laboratory Methods, 5th Ed. C. V. MOSBY, St. Louis, Mo. 1957), and was adjusted to a final concentration of 5.0×10^4 colony-forming units/ml.
(§14) Equal volumes (0.1 ml) of both bacterial suspensions and substance solutions were distributed in microtiter plates (Falcon, 96 wells, round bottom), and then placed in a humidified incubator (37° C.) for 18 hours.
(§15) The results, in terms of MIC values, resistant strain number and mean MIC values versus susceptible strains, are illustrated in Tables 1-6.

[12] = test system: Streptococcus faecalis (501); assay: MIC in broth, Gram+ strains; details: Enterococcus faecalis; S. faecalis (501), Mueller-Hinton broth, 37° C., 18 hours; read-out: Minimal Inhibitory Concentration (MIC)
Experimental: as §10, §11, §12, §13, §14, §15

[13] = test system: Staphylococcus aureus (LC1); assay: MIC in broth, Gram+ strains; details: S. aureus (LC1), Mueller-Hinton broth, 37° C., 18 hours, read-out: Minimal Inhibitory Concentration (MIC)
Experimental: as §10, §11, §12, §13, §14, §15

[14] = test system: Staphylococcus aureus (306 MR); assay: MIC in broth, Gram+ strains; details: S. aureus (306 MR), Mueller-Hinton broth, 37° C., 18 hours, read-out: Minimal Inhibitory Concentration (MIC)
Experimental: as §10, §11, §12, §13, §14, §15

Q: For `CCCCCCCCCCCOC(=O)CC(C[N+](C)(C)C)OC(=O)CC(C)C` [ST 722, Isovaleryl-L-Carnitine Undecyl Ester Chloride], which MIC ([1]; Campylobacter fetus, ATCC27374, I = inoculum of 1.0 × 10^3) is on record?
A: 100 µg/mL

Q: And the MIC in agar ([1]; II = inoculum of 1.0 × 10^4)?
A: 100 µg/mL

Q: What about the MIC ([2]; I = inoculum of 1.0 × 10^3) of the same compound?
A: 12.5 µg/mL

Q: What about the MIC ([2]; II = inoculum of 1.0 × 10^4) of the same compound?
A: 12.5 µg/mL

Q: And the MIC ([3]; Campylobacter coli, LI048, I = inoculum of 1.0 × 10^3)?
A: 3.12 µg/mL

Q: What about the MIC in agar ([3]; II = inoculum of 1.0 × 10^4) of the same compound?
A: 3.12 µg/mL

Q: And the MIC [4]?
A: 25 µg/mL

Q: What about the MIC (Proteus mirabilis (32)) of the same compound?
A: > 100 µg/mL

Q: And the MIC (Proteus vulgaris (UM))?
A: 50 µg/mL

Q: And the MIC [5]?
A: 50 µg/mL

Q: And the MIC (Proteus morganii (D.S.))?
A: 100 µg/mL

Q: What about the MIC (Escherichia coli (76 F)) of the same compound?
A: 25 µg/mL

Q: And the MIC [6]?
A: 12.5 µg/mL

Q: What about the MIC [7] of the same compound?
A: 25 µg/mL

Q: What about the MIC [8] of the same compound?
A: 50 µg/mL

Q: And the MIC (Escherichia coli (R 57B))?
A: 25 µg/mL

Q: What about the MIC (Salmonella typhi (J)) of the same compound?
A: 25 µg/mL

Q: What about the MIC [9] of the same compound?
A: 25 µg/mL

Q: And the MIC (Escherichia coli (92 F))?
A: 25 µg/mL

Q: What about the MIC (Klebsiella oxytoca (552)) of the same compound?
A: 12.5 µg/mL

Q: What about the MIC [10] of the same compound?
A: 50 µg/mL

Q: What about the MIC [11] of the same compound?
A: 6.25 µg/mL

Q: And the MIC [12]?
A: 3.12 µg/mL

Q: And the MIC [13]?
A: 1.56 µg/mL

Q: And the MIC [14]?
A: 6.25 µg/mL
